# From ChEMBL document CHEMBL2169877, “Antagonists of 5-HT₆ receptors. Substituted 3-(phenylsulfonyl)pyrazolo[1,5-a]pyrido[3,4-e]pyrimidines and 3-(phenylsulfonyl)pyrazolo[1,5-a]pyrido[4,3-d]pyrimidines-Synthesis and 'structure-activity' relationship” (Bioorg Med Chem Lett, 2012)
# Active and inactive are the calls of the source. The rule behind the calls is not given here.
# How the values were obtained:
# [1] = target: Cannabinoid receptor 1 (Homo sapiens) (UniProt P21554); experiment: Binding affinity to CB1 receptor at 1 uM by radioligand displacement assay
# Cannabinoid receptor 1 (Homo sapiens), sequence (P21554 whole entry): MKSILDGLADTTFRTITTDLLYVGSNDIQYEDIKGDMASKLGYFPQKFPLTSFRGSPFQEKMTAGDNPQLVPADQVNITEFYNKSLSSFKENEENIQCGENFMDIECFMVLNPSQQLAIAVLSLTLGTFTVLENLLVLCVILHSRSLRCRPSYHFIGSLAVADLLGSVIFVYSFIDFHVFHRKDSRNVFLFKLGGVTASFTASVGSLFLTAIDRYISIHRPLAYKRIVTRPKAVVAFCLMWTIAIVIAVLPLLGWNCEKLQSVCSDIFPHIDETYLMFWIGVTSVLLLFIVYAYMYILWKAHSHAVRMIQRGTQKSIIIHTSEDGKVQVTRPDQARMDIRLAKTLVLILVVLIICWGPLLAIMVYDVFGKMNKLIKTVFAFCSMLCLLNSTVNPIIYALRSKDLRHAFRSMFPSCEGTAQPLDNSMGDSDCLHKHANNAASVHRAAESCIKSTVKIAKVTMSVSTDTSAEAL
# [2] = target: Cannabinoid receptor 2 (Homo sapiens) (UniProt P34972); experiment: Binding affinity to CB2 receptor at 1 uM by radioligand displacement assay
# [3] = Binding affinity to choline transporter at 1 uM by radioligand displacement assay
# [4] = target: Corticotropin-releasing factor receptor 1 (Homo sapiens) (UniProt P34998); experiment: Binding affinity to CRF1R at 1 uM by radioligand displacement assay
# [5] = target: D(1A) dopamine receptor (Homo sapiens) (UniProt P21728); experiment: Binding affinity to dopamine D1 receptor at 1 uM by radioligand displacement assay
# [6] = target: D(2) dopamine receptor (Homo sapiens) (UniProt P14416); experiment: Binding affinity to dopamine D2L receptor at 1 uM by radioligand displacement assay
# D(2) dopamine receptor (Homo sapiens), sequence (P14416 whole entry): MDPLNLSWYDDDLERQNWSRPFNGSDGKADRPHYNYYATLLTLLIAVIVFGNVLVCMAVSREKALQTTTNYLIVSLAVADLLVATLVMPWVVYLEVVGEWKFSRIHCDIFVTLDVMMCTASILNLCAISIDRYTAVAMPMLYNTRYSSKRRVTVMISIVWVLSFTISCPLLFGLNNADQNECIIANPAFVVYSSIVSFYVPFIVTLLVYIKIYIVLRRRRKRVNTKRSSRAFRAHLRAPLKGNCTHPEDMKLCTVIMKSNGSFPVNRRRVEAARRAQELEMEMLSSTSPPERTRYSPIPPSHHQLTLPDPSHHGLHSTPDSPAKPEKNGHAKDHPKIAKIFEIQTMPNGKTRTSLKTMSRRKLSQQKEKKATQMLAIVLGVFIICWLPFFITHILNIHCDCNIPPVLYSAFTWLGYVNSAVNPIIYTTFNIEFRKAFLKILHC
# [7] = target: D(2) dopamine receptor (Homo sapiens) (UniProt P14416); experiment: Binding affinity to dopamine D2S receptor at 1 uM by radioligand displacement assay
# [8] = target: D(3) dopamine receptor (Homo sapiens) (UniProt P35462); experiment: Binding affinity to dopamine D3 receptor at 1 uM by radioligand displacement assay
# D(3) dopamine receptor (Homo sapiens), sequence (P35462 whole entry): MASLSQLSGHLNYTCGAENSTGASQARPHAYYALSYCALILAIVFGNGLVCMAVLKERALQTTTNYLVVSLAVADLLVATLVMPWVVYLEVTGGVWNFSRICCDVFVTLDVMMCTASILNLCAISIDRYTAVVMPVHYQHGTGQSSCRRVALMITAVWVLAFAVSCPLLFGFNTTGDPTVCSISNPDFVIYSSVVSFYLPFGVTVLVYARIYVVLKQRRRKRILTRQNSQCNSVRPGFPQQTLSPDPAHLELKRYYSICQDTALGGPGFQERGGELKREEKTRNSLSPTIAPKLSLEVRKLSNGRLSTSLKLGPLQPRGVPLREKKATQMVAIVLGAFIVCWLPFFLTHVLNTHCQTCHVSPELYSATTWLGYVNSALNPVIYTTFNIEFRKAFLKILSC
# [9] = target: Sodium-dependent dopamine transporter (Homo sapiens) (UniProt Q01959); experiment: Binding affinity to DAT at 1 uM by radioligand displacement assay
# [10] = Binding affinity to peripheral benzodiazepine receptor at 1 uM by radioligand displacement assay
# [11] = Binding affinity to GABA-B receptor at 1 uM by radioligand displacement assay
# [12] = Binding affinity to Glutamate receptor at 1 uM by radioligand displacement assay
# [13] = target: Metabotropic glutamate receptor 5 (Homo sapiens) (UniProt P41594); experiment: Binding affinity to mGluR5 at 1 uM by radioligand displacement assay
# [14] = Binding affinity to glycine transporter at 1 uM by radioligand displacement assay
# [15] = Binding affinity to P2X receptor at 1 uM by radioligand displacement assay
# [16] = Binding affinity to P2Y receptor at 1 uM by radioligand displacement assay
# [17] = target: 5-hydroxytryptamine receptor 1A (Homo sapiens) (UniProt P08908); experiment: Binding affinity to 5HT1A receptor at 1 uM by radioligand displacement assay
# 5-hydroxytryptamine receptor 1A (Homo sapiens), sequence (P08908 whole entry): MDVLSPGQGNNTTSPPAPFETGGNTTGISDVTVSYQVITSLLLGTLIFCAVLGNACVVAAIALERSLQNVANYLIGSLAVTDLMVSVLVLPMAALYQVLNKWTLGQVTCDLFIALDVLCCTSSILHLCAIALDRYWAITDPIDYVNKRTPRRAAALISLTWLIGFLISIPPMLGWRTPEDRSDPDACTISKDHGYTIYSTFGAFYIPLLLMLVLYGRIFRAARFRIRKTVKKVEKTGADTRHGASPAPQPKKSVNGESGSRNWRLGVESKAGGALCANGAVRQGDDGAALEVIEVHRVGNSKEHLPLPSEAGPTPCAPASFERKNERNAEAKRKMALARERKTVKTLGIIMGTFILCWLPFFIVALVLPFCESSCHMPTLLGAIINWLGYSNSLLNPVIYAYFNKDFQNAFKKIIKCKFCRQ
# [18] = target: 5-hydroxytryptamine receptor 1B (Homo sapiens) (UniProt P28222); experiment: Binding affinity to 5HT1B receptor at 1 uM by radioligand displacement assay
# 5-hydroxytryptamine receptor 1B (Homo sapiens), sequence (P28222 whole entry): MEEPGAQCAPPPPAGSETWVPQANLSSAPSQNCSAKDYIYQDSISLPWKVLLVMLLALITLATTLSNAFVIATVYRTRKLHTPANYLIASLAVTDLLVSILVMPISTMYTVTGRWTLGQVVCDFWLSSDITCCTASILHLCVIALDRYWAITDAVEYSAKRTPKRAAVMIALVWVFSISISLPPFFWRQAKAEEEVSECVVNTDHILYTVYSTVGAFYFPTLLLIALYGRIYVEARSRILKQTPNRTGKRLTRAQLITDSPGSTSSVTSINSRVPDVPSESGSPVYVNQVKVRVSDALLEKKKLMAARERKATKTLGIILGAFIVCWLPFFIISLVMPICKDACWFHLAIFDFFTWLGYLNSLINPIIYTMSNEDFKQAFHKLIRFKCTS
# [19] = target: 5-hydroxytryptamine receptor 2C (Homo sapiens) (UniProt P28335); experiment: Binding affinity to 5HT2C receptor at 1 uM by radioligand displacement assay
# [20] = target: 5-hydroxytryptamine receptor 3A (Homo sapiens) (UniProt P46098); experiment: Binding affinity to 5HT3 receptor at 1 uM by radioligand displacement assay
# [21] = target: 5-hydroxytryptamine receptor 4 (Homo sapiens) (UniProt Q13639); experiment: Binding affinity to 5HT4 receptor at 1 uM by radioligand displacement assay
# [22] = target: Sodium-dependent serotonin transporter (Homo sapiens) (UniProt P31645); experiment: Binding affinity to serotonin transporter at 1 uM by radioligand displacement assay
# [23] = target: T1, 5-hydroxytryptamine receptor 2B (Homo sapiens, UniProt P41595); experiment: Antagonist activity at human recombinant 5HT2B receptor expressed in HEK293 cells assessed as inhibition of alphamethyl5HT-induced intracellular calcium mobilization by Fluo4-based staining method; type: functional, cell-based; conditions: hek293
# T1 sequence (P41595 whole entry): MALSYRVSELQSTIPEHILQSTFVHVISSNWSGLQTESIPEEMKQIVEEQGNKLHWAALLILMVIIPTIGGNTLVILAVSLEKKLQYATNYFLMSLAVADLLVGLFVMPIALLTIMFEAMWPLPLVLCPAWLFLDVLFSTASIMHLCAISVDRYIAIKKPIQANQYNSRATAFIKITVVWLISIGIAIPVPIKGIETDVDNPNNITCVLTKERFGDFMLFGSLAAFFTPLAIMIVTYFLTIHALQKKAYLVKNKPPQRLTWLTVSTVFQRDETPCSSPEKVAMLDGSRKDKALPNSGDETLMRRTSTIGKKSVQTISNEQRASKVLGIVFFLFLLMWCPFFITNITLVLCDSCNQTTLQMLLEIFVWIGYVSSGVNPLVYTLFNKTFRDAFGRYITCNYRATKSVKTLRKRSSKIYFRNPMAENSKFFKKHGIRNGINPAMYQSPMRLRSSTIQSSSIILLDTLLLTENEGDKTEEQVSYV
# [24] = Binding affinity to central-type GABA(A) receptor muscimol binding site at 1 uM by radioligand displacement assay
# [25] = Binding affinity to GABA(A) receptor TBOB binding site at 1 uM by radioligand displacement assay
# [26] = Binding affinity to GABA(A) receptor TBOP binding site at 1 uM by radioligand displacement assay
# [27] = target: Amine oxidase [flavin-containing] B (Homo sapiens, UniProt P27338); experiment: Binding affinity to MAO-B at 1 uM by radioligand displacement assay
# [28] = target: Nitric oxide synthase 1 (Homo sapiens) (UniProt P29475); experiment: Binding affinity to nNOS at 1 uM by radioligand displacement assay
# [29] = Binding affinity to PDE2 at 1 uM by radioligand displacement assay
# [30] = Binding affinity to PDE3 at 1 uM by radioligand displacement assay
# [31] = Binding affinity to PDE4 at 1 uM by radioligand displacement assay
# [32] = Binding affinity to PDE5 at 1 uM by radioligand displacement assay
# [33] = target: cAMP and cAMP-inhibited cGMP 3',5'-cyclic phosphodiesterase 10A (Homo sapiens) (UniProt Q9Y233); experiment: Binding affinity to PDE10A1 at 1 uM by radioligand displacement assay
# [34] = target: Cyclin-dependent kinase 1/cyclin B1 (Homo sapiens) (UniProt P06493+P14635); experiment: Binding affinity to CDK1/cyclin B at 1 uM by radioligand displacement assay; type: protein-complex assay
# [35] = target: Glycogen synthase kinase-3 beta (Homo sapiens) (UniProt P49841); experiment: Binding affinity to GSK3beta at 1 uM by radioligand displacement assay
# Glycogen synthase kinase-3 beta (Homo sapiens), sequence (P49841 whole entry, looked up): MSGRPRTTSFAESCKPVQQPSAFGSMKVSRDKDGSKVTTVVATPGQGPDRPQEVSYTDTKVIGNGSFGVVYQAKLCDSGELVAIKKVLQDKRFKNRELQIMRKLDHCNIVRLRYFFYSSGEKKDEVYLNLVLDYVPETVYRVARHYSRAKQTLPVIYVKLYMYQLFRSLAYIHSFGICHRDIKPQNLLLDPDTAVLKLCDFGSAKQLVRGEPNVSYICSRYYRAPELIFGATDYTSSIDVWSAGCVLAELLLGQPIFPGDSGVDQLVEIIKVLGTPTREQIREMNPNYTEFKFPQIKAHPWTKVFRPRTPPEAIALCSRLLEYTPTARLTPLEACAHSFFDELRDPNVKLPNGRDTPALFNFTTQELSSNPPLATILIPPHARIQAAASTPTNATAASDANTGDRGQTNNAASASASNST
# [36] = Binding affinity to PKC at 1 uM by radioligand displacement assay
# [37] = target: Adenosine receptor A1 (Homo sapiens) (UniProt P30542); experiment: Binding affinity to adenosine A1 receptor at 1 uM by radioligand displacement assay
# [38] = target: Adenosine receptor A2a (Homo sapiens) (UniProt P29274); experiment: Binding affinity to adenosine A2A receptor at 1 uM by radioligand displacement assay
# Adenosine receptor A2a (Homo sapiens), sequence (P29274 whole entry): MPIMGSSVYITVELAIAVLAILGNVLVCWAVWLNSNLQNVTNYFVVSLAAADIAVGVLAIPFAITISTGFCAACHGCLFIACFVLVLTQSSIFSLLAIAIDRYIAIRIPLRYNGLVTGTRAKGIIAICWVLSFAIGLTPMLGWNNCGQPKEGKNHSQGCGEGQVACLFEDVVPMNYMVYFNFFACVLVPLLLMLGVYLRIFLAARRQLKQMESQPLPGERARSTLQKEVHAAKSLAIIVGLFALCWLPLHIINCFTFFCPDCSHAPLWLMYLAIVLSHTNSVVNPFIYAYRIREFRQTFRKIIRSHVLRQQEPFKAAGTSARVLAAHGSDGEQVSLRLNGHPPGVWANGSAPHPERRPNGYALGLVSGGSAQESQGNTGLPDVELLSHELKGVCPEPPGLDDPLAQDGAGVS
# [39] = target: Adenosine receptor A3 (Homo sapiens) (UniProt P0DMS8); experiment: Binding affinity to adenosine A3 receptor at 1 uM by radioligand displacement assay
# Adenosine receptor A3 (Homo sapiens), sequence (P0DMS8 whole entry): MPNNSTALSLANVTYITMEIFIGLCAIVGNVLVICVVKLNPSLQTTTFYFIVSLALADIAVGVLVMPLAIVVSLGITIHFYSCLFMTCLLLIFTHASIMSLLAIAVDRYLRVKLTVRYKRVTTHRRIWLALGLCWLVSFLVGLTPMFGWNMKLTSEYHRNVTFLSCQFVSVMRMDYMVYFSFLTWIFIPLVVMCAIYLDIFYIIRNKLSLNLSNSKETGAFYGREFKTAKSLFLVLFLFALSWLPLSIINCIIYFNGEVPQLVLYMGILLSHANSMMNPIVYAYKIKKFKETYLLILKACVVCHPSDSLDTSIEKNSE
# [40] = Binding affinity to adenosine transporter at 1 uM by radioligand displacement assay
# [41] = target: Alpha-1A adrenergic receptor (Homo sapiens) (UniProt P35348); experiment: Binding affinity to alpha1A adrenergic receptor at 1 uM by radioligand displacement assay
# Alpha-1A adrenergic receptor (Homo sapiens), sequence (P35348 whole entry): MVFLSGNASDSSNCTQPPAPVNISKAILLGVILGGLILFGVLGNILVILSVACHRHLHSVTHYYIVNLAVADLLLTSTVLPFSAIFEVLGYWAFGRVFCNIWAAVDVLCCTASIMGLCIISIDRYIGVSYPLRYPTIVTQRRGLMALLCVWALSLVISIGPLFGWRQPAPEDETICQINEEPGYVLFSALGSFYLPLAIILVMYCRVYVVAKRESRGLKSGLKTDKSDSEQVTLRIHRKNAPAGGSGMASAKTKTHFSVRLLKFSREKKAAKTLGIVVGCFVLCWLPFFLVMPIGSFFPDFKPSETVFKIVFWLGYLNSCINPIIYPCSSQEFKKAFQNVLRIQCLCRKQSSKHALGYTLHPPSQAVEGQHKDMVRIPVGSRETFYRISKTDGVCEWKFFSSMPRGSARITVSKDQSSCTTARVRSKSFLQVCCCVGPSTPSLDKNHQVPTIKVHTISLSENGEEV
# [42] = target: Alpha-2B adrenergic receptor (Homo sapiens) (UniProt P18089); experiment: Binding affinity to alpha2B adrenergic receptor at 1 uM by radioligand displacement assay
# [43] = target: Beta-1 adrenergic receptor (Homo sapiens) (UniProt P08588); experiment: Binding affinity to beta1 adrenergic receptor at 1 uM by radioligand displacement assay
# Beta-1 adrenergic receptor (Homo sapiens), sequence (P08588 whole entry, looked up): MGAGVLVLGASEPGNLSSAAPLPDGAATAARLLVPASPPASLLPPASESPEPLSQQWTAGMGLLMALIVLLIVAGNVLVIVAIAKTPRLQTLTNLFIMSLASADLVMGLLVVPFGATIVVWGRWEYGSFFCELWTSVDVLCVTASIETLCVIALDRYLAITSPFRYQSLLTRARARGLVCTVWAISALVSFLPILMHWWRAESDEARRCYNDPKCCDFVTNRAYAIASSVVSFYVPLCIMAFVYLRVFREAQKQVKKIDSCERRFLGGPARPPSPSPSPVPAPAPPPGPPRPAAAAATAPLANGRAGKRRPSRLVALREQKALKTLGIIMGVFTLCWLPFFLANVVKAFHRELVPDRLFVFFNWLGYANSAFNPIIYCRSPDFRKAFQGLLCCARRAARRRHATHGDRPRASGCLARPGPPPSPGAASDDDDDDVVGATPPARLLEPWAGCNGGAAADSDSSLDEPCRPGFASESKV
# [44] = target: Sodium-dependent noradrenaline transporter (Homo sapiens) (UniProt P23975); experiment: Binding affinity to NET at 1 uM by radioligand displacement assay
# [45] = Binding affinity to N-type calcium channel at 1 uM by radioligand displacement assay
# [46] = target: T1, 5-hydroxytryptamine receptor 2B; experiment: Displacement of [3H]lysergic acid diethylamide from human recombinant 5HT2B receptor at 1 uM
# [47] = target: 5-hydroxytryptamine receptor 6 (Homo sapiens, UniProt P50406); experiment: Displacement of [3H]lysergic acid diethylamide from human recombinant 5HT6 receptor expressed in HeLa cells after 120 mins; type: cell-based
compound,measurement,setting,value
CNc1nn2cc3c(nc2c1S(=O)(=O)c1ccccc1)CCN(C)C3,Activity,[1],inactive
same,Activity,[2],inactive
same,Activity,[3],inactive
same,Activity,[4],inactive
same,Activity,[5],inactive
same,Activity,[6],inactive
same,Activity,[7],inactive
same,Activity,[8],inactive
same,Activity,[9],inactive
same,Activity,[10],inactive
same,Activity,[11],inactive
same,Activity,[12],inactive
same,Activity,[13],inactive
same,Activity,[14],inactive
same,Activity,[15],inactive
same,Activity,[16],inactive
same,Activity,[17],inactive
same,Activity,[18],inactive
same,Activity,[19],inactive
same,Activity,[20],inactive
same,Activity,[21],inactive
same,Activity,[22],inactive
same,IC50,[23],Not Active
same,Activity,[24],inactive
same,Activity,[25],inactive
same,Activity,[26],inactive
same,Activity,[27],Not Active
same,Activity,[28],inactive
same,Activity,[29],inactive
same,Activity,[30],inactive
same,Activity,[31],inactive
same,Activity,[32],inactive
same,Activity,[33],inactive
same,Activity,[34],inactive
same,Activity,[35],inactive
same,Activity,[36],inactive
same,Activity,[37],inactive
same,Activity,[38],inactive
same,Activity,[39],inactive
same,Activity,[40],inactive
same,Activity,[41],inactive
same,Activity,[42],inactive
same,Activity,[43],inactive
same,Activity,[44],inactive
same,Activity,[45],inactive
same,Activity,[46],inactive
same,Ki,[47],0.82 nM
